IC50 data for 26 compounds are collected here from patent US9422293B2 (priority 2006, dated 2016).

Each structure is given as a SMILES string. Where a name gives a salt, the structure may show the parent alone.

The test deals with rat TRPV1 (Rattus norvegicus (Rat), UniProt O35433). Particulars: read-out: Rat IC50.
rat TRPV1, sequence (O35433 whole entry): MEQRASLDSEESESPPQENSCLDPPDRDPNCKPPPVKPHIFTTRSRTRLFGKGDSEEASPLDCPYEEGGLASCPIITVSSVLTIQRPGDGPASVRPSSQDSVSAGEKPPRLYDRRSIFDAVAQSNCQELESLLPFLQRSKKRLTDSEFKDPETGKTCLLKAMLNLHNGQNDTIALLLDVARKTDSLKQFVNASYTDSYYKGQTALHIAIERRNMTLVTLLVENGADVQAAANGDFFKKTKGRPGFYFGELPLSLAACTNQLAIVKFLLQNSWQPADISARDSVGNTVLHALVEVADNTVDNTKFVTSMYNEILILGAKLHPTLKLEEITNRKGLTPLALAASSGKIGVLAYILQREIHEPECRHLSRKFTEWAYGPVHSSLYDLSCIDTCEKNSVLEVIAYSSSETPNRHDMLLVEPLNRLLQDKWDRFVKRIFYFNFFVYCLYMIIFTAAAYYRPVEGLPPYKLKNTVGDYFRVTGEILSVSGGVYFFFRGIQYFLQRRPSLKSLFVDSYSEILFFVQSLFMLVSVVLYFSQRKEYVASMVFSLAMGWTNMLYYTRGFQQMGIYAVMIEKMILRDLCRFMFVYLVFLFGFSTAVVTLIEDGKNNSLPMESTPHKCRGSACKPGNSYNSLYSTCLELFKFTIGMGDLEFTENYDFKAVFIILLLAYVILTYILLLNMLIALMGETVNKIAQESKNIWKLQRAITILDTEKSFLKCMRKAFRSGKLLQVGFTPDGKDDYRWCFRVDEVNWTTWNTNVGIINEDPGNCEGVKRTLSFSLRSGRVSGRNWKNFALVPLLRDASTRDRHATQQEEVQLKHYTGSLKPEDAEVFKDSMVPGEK
For the compound `Cc1cc(C(F)(F)F)ccc1Nc1nc(OC2CCCCC2)nc2c1CCN(c1ncccc1C(F)(F)F)CC2` [Example 326, 2-(Cyclohexyloxy)-N-[2-methyl-4-(trifluoromethyl)phenyl]-7-[3-(trifluoromethyl)pyridin-2-yl]-6,7,8,9-tetrahydro-5H-pyrimido[4,5-d]azepin-4-amine], the half-inhibitory concentration (IC50) was 600 nM.

In the case of `CCCCOc1nc2c(c(Nc3ccc(C(F)(F)F)nc3)n1)CCN(c1ncccc1C(F)(F)F)CC2` [Example 327, 2-(Butyloxy)-7-[3-(trifluoromethyl)pyridin-2-yl]-N-[6-(trifluoromethyl)pyridin-3-yl]-6,7,8,9-tetrahydro-5H-pyrimido[4,5-d]azepin-4-amine], the half-maximal inhibitory concentration (IC50) is 890 nM.

In the case of `CN1CCCc2ccc(Nc3nc(OC4CCCCC4)nc4c3CCN(c3ncccc3C(F)(F)F)CC4)cc21` [Example 328, 2-(Cyclohexyloxy)-N-(1-methyl-1,2,3,4-tetrahydroquinolin-7-yl)-7-[3-(trifluoromethyl)pyridin-2-yl]-6,7,8,9-tetrahydro-5H-pyrimido[4,5-d]azepin-4-amine], the half-inhibitory concentration (IC50) stood at 250 nM.

On to `CN1CCCc2ccc(Nc3nc(OC4CCOCC4)nc4c3CCN(c3ncccc3C(F)(F)F)CC4)cc21` [Example 329, N-(1-Methyl-1,2,3,4-tetrahydroquinolin-7-yl)-2-(tetrahydro-2H-pyran-4-yloxy)-7-[3-(trifluoromethyl)pyridin-2-yl]-6,7,8,9-tetrahydro-5H-pyrimido[4,5-d]azepin-4-amine], for which the IC50 was determined as 120 nM.

Turning to `O=S(=O)(c1ccc(Nc2nc(OC3CCOC3)nc3c2CCN(c2ncccc2C(F)(F)F)CC3)cc1)C(F)(F)F` (centres unmarked) [Example 331, 2-(Tetrahydrofuran-3-yloxy)-7-[3-(trifluoromethyl)pyridin-2-yl]-N-{4-[(trifluoromethyl)sulfonyl]phenyl}-6,7,8,9-tetrahydro-5H-pyrimido[4,5-d]azepin-4-amine], the half-inhibitory concentration (IC50) was 500 nM.

With `CC(Oc1nc2c(c(Nc3ccc(C(F)(F)F)cc3)n1)CCN(c1ncccc1C(F)(F)F)CC2)C1CCCCC1` (stereo not drawn) [Example 332, 2-[(1-Cyclohexylethyl)oxy]l-N-[4-(trifluoromethyl)phenyl]-7-[3-(trifluoromethyl)pyridin-2-yl]-6,7,8,9-tetrahydro-5H-pyrimido[4,5-d]azepin-4-amine], the IC50 amounted to 2040 nM.

For `O=S(=O)(c1ccc(Nc2nc(OC3CCCC3)nc3c2CCN(c2ncccc2C(F)(F)F)CC3)cc1)N1CCCC1` [Example 333, 2-(Cyclopentyloxy)-N-[4-(pyrrolidin-1-ylsulfonyl)phenyl]-7-[3-(trifluoromethyl)pyridin-2-yl]-6,7,8,9-tetrahydro-5H-pyrimido[4,5-d]azepin-4-amine], the concentration for half-maximal inhibition (IC50) is 40 nM.

For `O=S(=O)(c1ccc(Nc2nc(OC3CCOCC3)nc3c2CCN(c2ncccc2C(F)(F)F)CC3)cc1)N1CCCC1` [Example 335, N-[4-(Pyrrolidin-1-ylsulfonyl)phenyl]-2-(tetrahydro-2H-pyran-4-yloxy)-7-[3-(trifluoromethyl)pyridin-2-yl]-6,7,8,9-tetrahydro-5H-pyrimido[4,5-d]azepin-4-amine], the half-maximal inhibitory concentration (IC50) was found to be 150 nM.

In the case of `FC(F)(F)c1ccc(Nc2nc(OC3CCCCCC3)nc3c2CCN(c2ncccc2C(F)(F)F)CC3)cc1` [Example 336, 2-(Cycloheptyloxy)-N-[4-(trifluoromethyl)phenyl]-7-[3-(trifluoromethyl)pyridin-2-yl]-6,7,8,9-tetrahydro-5H-pyrimido[4,5-d]azepin-4-amine], the IC50 is 1640 nM.

Turning to `FC(F)(F)c1ccc(Nc2nc(OC3CCCC3)nc3c2CCN(c2ncccc2C(F)(F)F)CC3)cc1` [Example 337, 2-(Cyclopentyloxy)-N-[4-(trifluoromethyl)phenyl]-7-[3-(trifluoromethyl)pyridin-2-yl]-6,7,8,9-tetrahydro-5H-pyrimido[4,5-d]azepin-4-amine], the IC50 was 170 nM.

As to `FC(F)(F)c1ccc(Nc2nc(OC3CCCCC3)nc3c2CCN(c2ncccc2C(F)(F)F)CC3)cc1` [Example 338, 2-(Cyclohexyloxy)-N-[4-(trifluoromethyl)phenyl]-7-[3-(trifluoromethyl)pyridin-2-yl]-6,7,8,9-tetrahydro-5H-pyrimido[4,5-d]azepin-4-amine], the IC50 amounted to 400 nM.

On to `FC(F)(F)c1ccc(Nc2nc(OC3CCOCC3)nc3c2CCN(c2ncccc2C(F)(F)F)CC3)cc1` [Example 339, 2-(Tetrahydro-2H-pyran-4-yloxy)-N-[4-(trifluoromethyl)phenyl]-7-[3-(trifluoromethyl)pyridin-2-yl]-6,7,8,9-tetrahydro-5H-pyrimido[4,5-d]azepin-4-amine], for which the IC50 is 190 nM.

Turning to `FC(F)(F)c1ccc(Nc2nc(OC3CCOC3)nc3c2CCN(c2ncccc2C(F)(F)F)CC3)cc1` (centres unmarked) [Example 340, 2-(Tetrahydrofuran-3-yloxy)-N-[4-(trifluoromethyl)phenyl]-7-[3-(trifluoromethyl)pyridin-2-yl]-6,7,8,9-tetrahydro-5H-pyrimido[4,5-d]azepin-4-amine], the IC50 was 260 nM.

As for `CC(C)Oc1nc2c(c(Nc3ccc(C(F)(F)F)cc3)n1)CCN(c1ncccc1C(F)(F)F)CC2` [Example 341, 2-[(1-Methylethyl)oxy]l-N-[4-(trifluoromethyl)phenyl]-7-[3-(trifluoromethyl)pyridin-2-yl]-6,7,8,9-tetrahydro-5H-pyrimido[4,5-d]azepin-4-amine trifluoroacetic acid salt], the half-inhibitory concentration (IC50) was found to be 150 nM.

In the case of `FC(F)(F)c1ccc(Nc2nc(Oc3ccccc3)nc3c2CCN(c2ncccc2C(F)(F)F)CC3)cc1` [Example 342, 2-(Phenyloxy)-N-[4-(trifluoromethyl)phenyl]-7-[3-(trifluoromethyl)pyridin-2-yl]-6,7,8,9-tetrahydro-5H-pyrimido[4,5-d]azepin-4-amine trifluoroacetic acid salt], the 50% inhibitory concentration (IC50) is 60 nM.

With `CCCCOc1nc2c(c(Nc3ccc(C(F)(F)F)cc3)n1)CCN(c1ncccc1C(F)(F)F)CC2` [Example 343, 2-(Butyloxy)-N-[4-(trifluoromethyl)phenyl]-7-[3-(trifluoromethyl)pyridin-2-yl]-6,7,8,9-tetrahydro-5H-pyrimido[4,5-d]azepin-4-amine], the 50% inhibitory concentration (IC50) was 60 nM.

Take `CCOc1nc2c(c(Nc3ccc(C(F)(F)F)cc3)n1)CCN(c1ncccc1C(F)(F)F)CC2` [Example 345, 2-(Ethyloxy)-N-[4-(trifluoromethyl)phenyl]-7-[3-(trifluoromethyl)pyridin-2-yl]-6,7,8,9-tetrahydro-5H-pyrimido[4,5-d]azepin-4-amine trifluoroacetic acid salt]: the half-inhibitory concentration (IC50) was found to be 190 nM.

With `COCc1nc2c(c(Nc3ccc(C(F)(F)F)nc3)n1)CCN(c1ncccc1C(F)(F)F)CC2` [Example 346, 2-[(Methyloxy)methyl]-7-[3-(trifluoromethyl)pyridin-2-yl]-N-[6-(trifluoromethyl)pyridin-3-yl]-6,7,8,9-tetrahydro-5H-pyrimido[4,5-d]azepin-4-amine trifluoroacetic acid salt], the IC50 is over 6670 nM.

On to `COCc1nc2c(c(Nc3ccc(C(C)(C)C#N)cc3)n1)CCN(c1ncccc1C(F)(F)F)CC2` [Example 347, 2-Methyl-2-[4-({2-[(methyloxy)methyl]-7-[3-(trifluoromethyl)pyridin-2-yl]-6,7,8,9-tetrahydro-5H-pyrimido[4,5-d]azepin-4-yl}amino)phenyl]propanenitrile trifluoroacetic acid salt], for which the concentration for half-maximal inhibition (IC50) was 1320 nM.

Consider `FC(F)(F)c1ccc(Nc2nc(Sc3ccccc3)nc3c2CCN(c2ncccc2C(F)(F)F)CC3)cc1` [Example 349, 2-(Phenylsulfanyl)-N-[4-(trifluoromethyl)phenyl]-7-[3-(trifluoromethyl)pyridin-2-yl]-6,7,8,9-tetrahydro-5H-pyrimido[4,5-d]azepin-4-amine], for which the IC50 worked out at 2350 nM.

With `O=S(=O)(c1ccc(Nc2nc(Sc3ccccc3)nc3c2CCN(c2ncccc2C(F)(F)F)CC3)cc1)C(F)(F)F` [Example 350, 2-(Phenylsulfanyl)-7-[3-(trifluoromethyl)pyridin-2-yl]-N-{4-[(trifluoromethyl)sulfonyl]phenyl}-6,7,8,9-tetrahydro-5H-pyrimido[4,5-d]azepin-4-amine], the IC50 was 30 nM.

Take `Cc1cc(C(F)(F)F)ccc1Nc1nc(Sc2ccccc2)nc2c1CCN(c1ncccc1C(F)(F)F)CC2` [Example 351, N-[2-Methyl-4-(trifluoromethyl)phenyl]-2-(phenylsulfanyl)-7-[3-(trifluoromethyl)pyridin-2-yl]-6,7,8,9-tetrahydro-5H-pyrimido[4,5-d]azepin-4-amine]: the half-inhibitory concentration (IC50) came out at 750 nM.

Consider `CN1CCC(C)(C)c2ccc(Nc3nc(Sc4ccccc4)nc4c3CCN(c3ncccc3C(F)(F)F)CC4)cc21` [Example 352, 2-(Phenylsulfanyl)-7-[3-(trifluoromethyl)pyridin-2-yl]-N-(1,4,4-trimethyl-1,2,3,4-tetrahydroquinolin-7-yl)-6,7,8,9-tetrahydro-5H-pyrimido[4,5-d]azepin-4-amine], for which the half-inhibitory concentration (IC50) was over 6670 nM.

Consider `FC(F)(F)c1ccc(Nc2nc(SCc3ccccc3)nc3c2CCN(c2ncccc2C(F)(F)F)CC3)cc1` [Example 353, 2-[(Phenylmethyl)sulfanyl]-N-[4-(trifluoromethyl)phenyl]-7-[3-(trifluoromethyl)pyridin-2-yl]-6,7,8,9-tetrahydro-5H-pyrimido[4,5-d]azepin-4-amine], for which the concentration for half-maximal inhibition (IC50) was determined as 240 nM.

In the case of `FC(F)(F)c1ccc(Nc2nc(SC3CCCCC3)nc3c2CCN(c2ncccc2C(F)(F)F)CC3)cc1` [Example 354, 2-(Cyclohexylsulfanyl)-N-[4-(trifluoromethyl)phenyl]-7-[3-(trifluoromethyl)pyridin-2-yl]-6,7,8,9-tetrahydro-5H-pyrimido[4,5-d]azepin-4-amine], the 50% inhibitory concentration (IC50) amounted to 250 nM.

In the case of `CC(C)Sc1nc2c(c(Nc3ccc(C(F)(F)F)cc3)n1)CCN(c1ncccc1C(F)(F)F)CC2` [Example 355, 2-[(1-Methylethyl)sulfanyl]-N-[4-(trifluoromethyl)phenyl]-7-[3-(trifluoromethyl)pyridin-2-yl]-6,7,8,9-tetrahydro-5H-pyrimido[4,5-d]azepin-4-amine], the IC50 came to 60 nM.

What is called IC50 is the concentration needed to halve the response being measured.
